Values joined by “and” are separate entries in the source; they are usually repeats but may differ in a detail not shown here. Identical values can stand only once. Toxic doses and inconclusive results are not listed. How the source made its calls: active means survival T/C of 150% or more; inactive means T/C below 125% in these data.
Tested on: BDF1 mice, B16 melanoma ip, median survival T/C
Assay: NCI In Vivo Anticancer Drug Screen. Data for tumor model B16 Melanoma (intraperitoneal) in B6D2F1 (BDF1) mice
Conditions: endpoint: median survival time, schedule: Q01DX009 (ip), higher = longer survival
In short: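 In this screen, activity was judged from survival or tumor size in treated versus vehicle-treated tumor-bearing mice, reported as T/C.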

[1] = dose: 25.0 mg/kg/injection, vehicle: saline with Tween-80
[2] = dose: 50.0 mg/kg/injection, vehicle: saline with Tween-80
[3] = dose: 100.0 mg/kg/injection, vehicle: saline with Tween-80
[4] = dose: 200.0 mg/kg/injection, vehicle: saline with Tween-80
[5] = dose: 25.0 mg/kg/injection, vehicle: saline
[6] = dose: 100.0 mg/kg/injection, vehicle: saline
[7] = dose: 200.0 mg/kg/injection, vehicle: saline
[8] = dose: 6.25 mg/kg/injection, vehicle: saline
[9] = dose: 12.5 mg/kg/injection, vehicle: saline

Measured: T/C

COc1ccc(Cl)cc1NC(=O)c1ccccc1Cl
inactive: dose: 100.0 mg/kg/injection, vehicle: Klucel (hydroxypropylcellulose) (HPC) 102 % of control | dose: 200.0 mg/kg/injection, vehicle: Klucel (hydroxypropylcellulose) (HPC) 108 % of control | dose: 400.0 mg/kg/injection, vehicle: Klucel (hydroxypropylcellulose) (HPC) 100 % of control

CN(Cc1ccccc1)/N=N/c1nc[nH]c1C(N)=O
inactive: [1] 111 % of control | [2] 111 % of control | [3] 111 % of control | [4] 110 % of control

Nc1ccc(S(=O)(=O)c2ccc(NCNc3ccc(S(=O)(=O)c4ccc(N)cc4)cc3)cc2)cc1
inactive: [3] 88 % of control | [4] 92 % of control | dose: 400.0 mg/kg/injection, vehicle: saline with Tween-80 90 % of control

CCOC(=O)CC(SP(=S)(OC)OC)C(=O)OCC (configuration not stated)
inactive: [1] 94 % of control and 107 % of control | [5] 106 % of control | [2] 96 % of control and 97 % of control | dose: 50.0 mg/kg/injection, vehicle: saline 95 % of control | [3] 91 % of control and 98 % of control | [6] 101 % of control | [4] 88 % of control and 96 % of control | [7] 101 % of control

COc1cc([C@@H]2c3cc4c(cc3[C@H](O)[C@H]3COC(=O)[C@H]23)OCO4)cc(OC)c1OC
inactive: dose: 2.0 mg/kg/injection, vehicle: saline 102 % of control | dose: 4.0 mg/kg/injection, vehicle: saline 109 % of control | dose: 8.0 mg/kg/injection, vehicle: saline 104 % of control

CCCCCC(CN(C)C)C(=O)/C=C\c1ccc(Cl)cc1Cl (configuration not stated)
inactive: [8] 105 % of control | [9] 97 % of control

N=C(N)c1ccc(OCCCOc2ccc(C(=N)N)cc2Br)c(Br)c1
inactive: [8] 97 % of control and 114 % of control | [9] 97 % of control and 111 % of control | [5] 97 % of control and 111 % of control

COc1cc(C(=O)OCCCN2CCOCC2)cc(OC)c1OC
inactive: dose: 0.78 mg/kg/injection, vehicle: saline 105 % of control | dose: 1.56 mg/kg/injection, vehicle: saline 110 % of control | dose: 3.12 mg/kg/injection, vehicle: saline 110 % of control | [8] 105 % of control | [9] 110 % of control | [7] 89 % of control

O=C(CCN1CC1)OCCOC(=O)CCN1CC1
inactive: dose: 1.5 mg/kg/injection, vehicle: saline 118 % of control | dose: 3.0 mg/kg/injection, vehicle: saline 110 % of control

CC(=Nc1ccccc1)C1=C(O)C(Cc2ccc(O)cc2)NC1=O (configuration not stated)
inactive: dose: 12.5 mg/kg/injection, vehicle: saline with Tween-80 111 % of control

CC(O)CN1CC(C)OC(C)C1 (configuration not stated)
inactive: [6] 97 % of control | [7] 90 % of control | dose: 400.0 mg/kg/injection, vehicle: saline 97 % of control

CCOC(=O)N1Cc2cc3cc(Cl)ccc3nc2C1
inactive: dose: 8.0 mg/kg/injection, vehicle: saline with Tween-80 103 % of control | dose: 16.0 mg/kg/injection, vehicle: saline with Tween-80 95 % of control | dose: 32.0 mg/kg/injection, vehicle: saline with Tween-80 93 % of control | dose: 64.0 mg/kg/injection, vehicle: saline with Tween-80 112 % of control
